This note sets out measurements from ChEMBL document CHEMBL1132364, “Structure-activity relationship of N-(phenylalkyl)cinnamides as novel NR2B subtype-selective NMDA receptor antagonists” (J Med Chem, 1999).

In test [1] the target is Glutamate NMDA receptor; Grin1/Grin2b (Rattus norvegicus, UniProt P35439+Q00960). Briefly: Antagonistic activity against N-methyl-D-aspartate glutamate receptor 1/2B. The class given is functional.
Test [2] has as its target Glutamate NMDA receptor; Grin1/Grin2c (Rattus norvegicus, UniProt P35439+Q00961). In words: Antagonistic activity against N-methyl-D-aspartate glutamate receptor 1/2C. Type of test: functional.
Test [3] deals with Glutamate NMDA receptor; Grin1/Grin2a (Rattus norvegicus, UniProt P35439+Q00959). Briefly: Antagonistic activity against N-methyl-D-aspartate glutamate receptor 1/2A. Type of test: functional.
Sequence of Glutamate NMDA receptor; Grin1/Grin2a (Q00959 whole entry, other chains not shown): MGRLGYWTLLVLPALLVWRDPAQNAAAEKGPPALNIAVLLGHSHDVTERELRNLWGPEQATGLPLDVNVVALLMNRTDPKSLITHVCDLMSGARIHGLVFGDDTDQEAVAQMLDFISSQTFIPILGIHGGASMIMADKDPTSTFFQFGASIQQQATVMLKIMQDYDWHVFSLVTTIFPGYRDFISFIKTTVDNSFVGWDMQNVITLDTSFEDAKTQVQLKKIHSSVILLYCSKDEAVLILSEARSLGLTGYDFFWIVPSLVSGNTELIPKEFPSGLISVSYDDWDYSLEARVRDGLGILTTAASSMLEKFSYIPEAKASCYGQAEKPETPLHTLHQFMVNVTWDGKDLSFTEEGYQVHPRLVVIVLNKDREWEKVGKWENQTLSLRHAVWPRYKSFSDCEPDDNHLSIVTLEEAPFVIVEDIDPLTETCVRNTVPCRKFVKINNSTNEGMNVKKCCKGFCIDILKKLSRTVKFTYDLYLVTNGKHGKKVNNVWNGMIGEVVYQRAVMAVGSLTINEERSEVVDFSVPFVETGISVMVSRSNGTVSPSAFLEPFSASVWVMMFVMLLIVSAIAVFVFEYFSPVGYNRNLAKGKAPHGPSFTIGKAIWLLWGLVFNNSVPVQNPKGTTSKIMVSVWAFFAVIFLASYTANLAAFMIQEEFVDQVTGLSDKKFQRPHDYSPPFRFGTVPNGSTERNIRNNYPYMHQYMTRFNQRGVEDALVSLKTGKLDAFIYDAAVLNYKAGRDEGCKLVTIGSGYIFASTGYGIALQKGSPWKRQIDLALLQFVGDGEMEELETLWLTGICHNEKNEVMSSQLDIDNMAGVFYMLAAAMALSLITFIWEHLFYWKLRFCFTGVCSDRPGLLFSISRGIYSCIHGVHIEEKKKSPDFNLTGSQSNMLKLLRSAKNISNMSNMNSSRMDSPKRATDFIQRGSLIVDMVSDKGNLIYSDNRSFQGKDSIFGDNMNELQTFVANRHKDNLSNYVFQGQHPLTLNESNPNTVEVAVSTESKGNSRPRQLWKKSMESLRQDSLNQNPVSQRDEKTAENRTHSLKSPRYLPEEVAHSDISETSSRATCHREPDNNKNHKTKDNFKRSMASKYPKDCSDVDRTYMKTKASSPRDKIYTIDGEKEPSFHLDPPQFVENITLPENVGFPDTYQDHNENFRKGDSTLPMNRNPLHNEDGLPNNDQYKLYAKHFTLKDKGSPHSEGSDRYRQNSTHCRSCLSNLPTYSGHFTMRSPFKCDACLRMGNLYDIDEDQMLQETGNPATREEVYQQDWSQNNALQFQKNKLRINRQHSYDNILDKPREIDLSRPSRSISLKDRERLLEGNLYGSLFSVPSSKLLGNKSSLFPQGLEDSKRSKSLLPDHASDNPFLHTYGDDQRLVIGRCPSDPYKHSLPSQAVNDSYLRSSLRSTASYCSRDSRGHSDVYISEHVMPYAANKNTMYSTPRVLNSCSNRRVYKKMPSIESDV
Test [4] has as its target T1, Alpha-1A adrenergic receptor (Homo sapiens, UniProt P35348).
T1 sequence (P35348 whole entry): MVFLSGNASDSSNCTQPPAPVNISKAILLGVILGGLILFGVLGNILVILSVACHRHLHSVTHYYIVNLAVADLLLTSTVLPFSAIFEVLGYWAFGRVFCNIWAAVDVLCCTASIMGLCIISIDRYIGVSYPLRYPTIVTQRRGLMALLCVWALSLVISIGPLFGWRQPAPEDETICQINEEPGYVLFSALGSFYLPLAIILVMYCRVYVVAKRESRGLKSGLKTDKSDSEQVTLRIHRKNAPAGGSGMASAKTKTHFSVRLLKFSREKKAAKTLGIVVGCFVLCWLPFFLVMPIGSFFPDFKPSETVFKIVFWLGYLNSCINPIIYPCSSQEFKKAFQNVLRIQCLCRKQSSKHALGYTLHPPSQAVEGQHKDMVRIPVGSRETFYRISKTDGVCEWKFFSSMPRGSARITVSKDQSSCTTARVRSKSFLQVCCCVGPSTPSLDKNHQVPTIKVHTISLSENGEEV
Briefly: Inhibition of Alpha-1 adrenergic receptor.

Test [5] concerns the target Epidermal growth factor receptor (Homo sapiens, UniProt P00533). In words: Inhibition of Epidermal growth factor receptor autophosphorylation.

As usually defined, the IC50 is the point on the concentration scale where inhibition reaches its midpoint. Low values mean inhibition by little substance, high ones a need for much substance.

The structures appear in SMILES notation.

Sequence of Glutamate NMDA receptor; Grin1/Grin2b (Q00960 whole entry, other chains not shown): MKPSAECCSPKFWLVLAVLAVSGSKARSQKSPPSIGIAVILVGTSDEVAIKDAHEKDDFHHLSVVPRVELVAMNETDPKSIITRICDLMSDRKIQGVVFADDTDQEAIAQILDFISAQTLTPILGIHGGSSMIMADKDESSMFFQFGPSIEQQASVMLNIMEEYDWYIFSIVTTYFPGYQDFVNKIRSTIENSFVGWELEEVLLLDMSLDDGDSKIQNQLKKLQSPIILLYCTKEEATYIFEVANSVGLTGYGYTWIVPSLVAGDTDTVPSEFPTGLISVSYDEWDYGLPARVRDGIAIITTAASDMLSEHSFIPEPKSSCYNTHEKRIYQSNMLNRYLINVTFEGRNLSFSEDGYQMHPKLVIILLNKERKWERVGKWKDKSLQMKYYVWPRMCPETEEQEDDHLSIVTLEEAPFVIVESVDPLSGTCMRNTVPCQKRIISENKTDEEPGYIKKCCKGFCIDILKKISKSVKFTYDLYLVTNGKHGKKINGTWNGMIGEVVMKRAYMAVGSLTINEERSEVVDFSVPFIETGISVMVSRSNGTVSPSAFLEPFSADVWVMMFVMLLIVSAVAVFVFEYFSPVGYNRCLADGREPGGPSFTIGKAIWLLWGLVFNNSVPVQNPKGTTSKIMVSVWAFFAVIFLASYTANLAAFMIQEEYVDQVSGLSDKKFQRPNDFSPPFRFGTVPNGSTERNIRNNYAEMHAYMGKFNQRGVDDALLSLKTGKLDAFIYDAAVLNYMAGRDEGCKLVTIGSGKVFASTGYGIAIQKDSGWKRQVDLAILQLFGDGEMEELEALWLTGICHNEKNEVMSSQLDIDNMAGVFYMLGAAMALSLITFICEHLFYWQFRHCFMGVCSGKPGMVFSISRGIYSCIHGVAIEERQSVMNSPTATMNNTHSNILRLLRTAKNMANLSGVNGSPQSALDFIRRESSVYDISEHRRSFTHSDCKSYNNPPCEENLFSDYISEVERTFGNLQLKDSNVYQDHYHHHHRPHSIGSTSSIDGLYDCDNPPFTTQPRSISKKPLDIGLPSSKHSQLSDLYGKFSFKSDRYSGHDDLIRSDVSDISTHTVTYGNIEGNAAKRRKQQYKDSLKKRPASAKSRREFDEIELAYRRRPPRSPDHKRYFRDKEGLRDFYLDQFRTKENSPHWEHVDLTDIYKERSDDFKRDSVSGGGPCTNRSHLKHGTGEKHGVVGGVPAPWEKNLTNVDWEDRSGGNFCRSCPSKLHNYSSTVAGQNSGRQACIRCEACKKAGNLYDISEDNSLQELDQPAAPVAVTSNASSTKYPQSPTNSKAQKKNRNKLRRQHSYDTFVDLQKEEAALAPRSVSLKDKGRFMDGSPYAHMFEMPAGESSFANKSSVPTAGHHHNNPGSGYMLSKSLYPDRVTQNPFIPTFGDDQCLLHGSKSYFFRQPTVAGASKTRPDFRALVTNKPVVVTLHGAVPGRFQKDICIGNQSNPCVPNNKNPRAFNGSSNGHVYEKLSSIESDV
Sequence of Glutamate NMDA receptor; Grin1/Grin2c (Q00961 whole entry, other chains not shown): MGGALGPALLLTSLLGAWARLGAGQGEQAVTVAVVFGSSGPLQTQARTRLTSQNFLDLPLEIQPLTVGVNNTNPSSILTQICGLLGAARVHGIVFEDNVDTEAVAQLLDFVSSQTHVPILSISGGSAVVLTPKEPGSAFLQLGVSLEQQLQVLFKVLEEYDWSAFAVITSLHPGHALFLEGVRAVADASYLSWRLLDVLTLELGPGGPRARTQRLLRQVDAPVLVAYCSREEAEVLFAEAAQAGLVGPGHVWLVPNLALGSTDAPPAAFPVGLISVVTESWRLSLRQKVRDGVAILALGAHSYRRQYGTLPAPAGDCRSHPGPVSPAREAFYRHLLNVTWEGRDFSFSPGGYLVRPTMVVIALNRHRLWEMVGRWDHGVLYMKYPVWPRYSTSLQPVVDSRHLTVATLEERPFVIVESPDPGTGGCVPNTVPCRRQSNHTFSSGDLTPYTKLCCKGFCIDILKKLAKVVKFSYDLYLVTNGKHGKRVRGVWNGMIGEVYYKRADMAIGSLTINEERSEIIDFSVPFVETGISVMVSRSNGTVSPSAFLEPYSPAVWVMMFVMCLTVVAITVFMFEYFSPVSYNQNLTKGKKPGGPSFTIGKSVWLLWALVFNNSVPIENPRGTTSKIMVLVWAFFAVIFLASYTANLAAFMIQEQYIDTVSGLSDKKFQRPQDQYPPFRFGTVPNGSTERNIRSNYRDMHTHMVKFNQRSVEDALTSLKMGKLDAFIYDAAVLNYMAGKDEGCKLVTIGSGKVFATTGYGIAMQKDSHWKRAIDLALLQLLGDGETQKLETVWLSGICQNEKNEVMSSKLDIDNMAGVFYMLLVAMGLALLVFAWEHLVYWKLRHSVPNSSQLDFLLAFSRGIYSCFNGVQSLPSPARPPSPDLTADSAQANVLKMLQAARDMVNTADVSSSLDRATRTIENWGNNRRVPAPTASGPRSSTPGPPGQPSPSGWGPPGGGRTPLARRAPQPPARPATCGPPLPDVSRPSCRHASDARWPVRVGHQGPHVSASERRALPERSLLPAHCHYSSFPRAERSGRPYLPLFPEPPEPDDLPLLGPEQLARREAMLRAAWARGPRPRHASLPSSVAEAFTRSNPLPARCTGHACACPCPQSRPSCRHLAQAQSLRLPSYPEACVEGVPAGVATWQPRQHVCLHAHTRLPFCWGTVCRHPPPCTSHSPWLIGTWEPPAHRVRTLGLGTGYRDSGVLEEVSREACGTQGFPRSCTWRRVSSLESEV

For `O=C(/C=C/c1ccc(Cl)cc1)NCCc1ccc(O)cc1`, the IC50 in test [1] was 0.17 µM; in test [2], greater than 100 µM; in test [3] it was greater than 100 µM.

As for `N#C/C(=C\c1ccc(F)cc1)C(=O)NCCCCc1ccccc1`, the IC50 in test [1], in test [2] and in test [3] was greater than 100 µM each time.

As for `O=C(/C=C/c1ccccc1)NCCc1ccc(O)cc1`, the figures for the IC50 in test [1], in test [2] and in test [3] were 0.68 µM, greater than 100 µM and greater than 100 µM, respectively.

Turning to `N#C/C(=C\c1ccc(Cl)cc1)C(=O)NCCCCc1ccccc1`, the IC50 in test [1], in test [2] and in test [3] was greater than 100 µM throughout.

For the compound `O=C(/C=C/c1ccc(Cl)cc1)NCCc1ccccc1O`, the IC50 was 8.3 µM in test [1], greater than 100 µM in test [2] and greater than 100 µM in test [3].

`N#C/C(=C\c1ccc(O)c(O)c1)C(=O)NCc1ccccc1`: the IC50 in test [1] came to 45 µM; in test [2] it was 100 µM; in test [3], 19 µM.

In the case of `N#C/C(=C\c1ccc(O)c(O)c1)C(=O)NCCCc1ccccc1`, the values for the IC50 in test [1], in test [2] and in test [3] were 0.66 µM, 60 µM and greater than 100 µM, respectively.

As for `O=C(/C=C/c1ccc(O)cc1)NCCc1ccccc1`, the IC50 in test [1] was 1.5 µM; in test [2], greater than 100 µM; in test [3], greater than 100 µM.

With `O=C(/C=C/c1cc(Cl)ccc1Cl)NCCCCc1ccccc1`, the IC50 in test [1], in test [2] and in test [3] was greater than 100 µM throughout.

Consider `N#C/C(=C\c1ccc(O)c(O)c1)C(=O)Nc1ccccc1`, for which the IC50 in test [1] is 90 µM; in test [2], greater than 100 µM; in test [3], greater than 100 µM.

`C[C@@H]([C@@H](O)c1ccc(O)cc1)N1CCC(O)(c2ccccc2)CC1` [TRAXOPRODIL]: the IC50 in test [2] and in test [3] was greater than 100 µM in each case.

`O=C(/C=C/c1ccc(Cl)cc1)NCCc1ccc(Cl)cc1`: the IC50 in test [1], in test [2] and in test [3] was greater than 100 µM each time.

For `O=C(O)COc1ccc(CCNC(=O)/C=C/c2ccc(Cl)cc2)cc1`, the IC50 in test [1] was 52 µM; in test [2], greater than 100 µM; in test [3], 45 µM.

`O=C(/C=C/c1ccc(Cl)cc1)NCCc1ccccc1`: the IC50 in test [1], in test [2] and in test [3] was greater than 100 µM in each case.

For the compound `C[C@@H](CN1CCC(Cc2ccccc2)CC1)[C@@H](O)c1ccc(O)cc1`, the IC50 was found to be 0.009 µM in test [1] and 52 µM in test [3].

Regarding `N#C/C(=C\c1ccc(O)cc1)C(=O)NCCCCc1ccccc1`, the IC50 is 0.29 µM in test [1], greater than 100 µM in test [2] and greater than 100 µM in test [3].

For `O=C(/C=C/c1ccc(Cl)cc1Cl)NCCc1ccc(O)cc1`, the half-maximal inhibitory concentration (IC50) is 19 µM in test [1], greater than 100 µM in test [2], greater than 100 µM in test [3] and greater than 100 µM in test [4].

Take `N#C/C(=C\C(=O)NCCc1ccc(O)cc1)c1ccc(Cl)cc1`: the figures for the IC50 in test [1], in test [2] and in test [3] were 9 µM, greater than 100 µM and greater than 100 µM, respectively.

As for `N#C/C(=C\c1ccc(O)c(O)c1)C(=O)NCCc1ccccc1`, the IC50 in test [1] is 1.7 µM; in test [5], less than 0.625 µM; in test [2] it was greater than 100 µM; in test [3], greater than 100 µM.

On to `CCN(CC)CCOc1ccc(CCNC(=O)/C=C/c2ccc(Cl)cc2)cc1`, for which the IC50 is 32 µM in test [1], greater than 100 µM in test [2] and 49 µM in test [3].

On to `O=C(/C=C/c1ccc(O)cc1)NCCCCc1ccccc1`, for which the IC50 is 0.077 µM in test [1], greater than 100 µM in test [2], greater than 100 µM in test [3] and greater than 100 µM in test [4].

Turning to `O=C(/C=C/c1ccccc1)NCCCCc1ccccc1`, the IC50 was 24 µM in test [1], greater than 100 µM in test [2] and greater than 100 µM in test [3].

For `O=C(/C=C/c1ccc(Cl)cc1)NCCc1cccc(O)c1`, the values for the IC50 in test [1], in test [2] and in test [3] were 7.4 µM, greater than 100 µM and greater than 100 µM, respectively.

For the compound `O=C(CCCCCc1ccccc1)CCc1ccc(O)cc1`, the values for the IC50 in test [1], in test [2] and in test [3] were 1.8 µM, greater than 100 µM and 23 µM, respectively.

For the compound `O=C(/C=C/c1ccc(O)cc1)NCCCCc1ccc(Cl)cc1`, the IC50 in test [1] was 0.125 µM; in test [2], greater than 100 µM; in test [3], greater than 100 µM.

`O=C(CCc1ccc(O)cc1)NCCCCc1ccccc1`: the IC50 in test [1] was 0.43 µM; in test [2] it was greater than 100 µM; in test [3], greater than 100 µM.

`N#C/C(=C\c1ccc(O)c(O)c1)C(=O)NCCCCc1ccccc1`: the IC50 was 0.56 µM in test [1], greater than 100 µM in test [2], greater than 100 µM in test [3] and greater than 100 µM in test [4].

With `O=C(/C=C/c1ccc(O)cc1)NCCc1ccc(Cl)cc1`, the IC50 in test [1] was 0.33 µM; in test [2], greater than 100 µM; in test [3], greater than 100 µM.

Consider `N#C/C(=C\c1ccccc1)C(=O)NCCCCc1ccccc1`, for which the IC50 in test [1] was 80 µM; in test [2] it was greater than 100 µM; in test [3], greater than 100 µM.

Take `O=C(/C=C/c1ccc(O)cc1)N1CCC(Cc2ccccc2)CC1`: the IC50 in test [2], in test [3] and in test [4] was greater than 100 µM in each case.

As to `N#C/C(=C\c1ccc(Cl)cc1)C(=O)NCCc1ccc(O)cc1`, the concentration for half-maximal inhibition (IC50) in test [1] was 3.4 µM; in test [2] it was greater than 100 µM; in test [3], 78 µM.

`O=C(/C=C/c1ccc(O)cc1)NCCc1ccc(O)cc1` [N-P-COUMAROYL TYRAMINE]: the IC50 was 21 µM in test [1], greater than 100 µM in test [2] and greater than 100 µM in test [3].

In the case of `N#C/C(=C\C(=O)NCCc1ccc(O)cc1)c1ccccc1`, the IC50 in test [1] is 46 µM; in test [2] it was greater than 100 µM; in test [3], greater than 100 µM.

Regarding `N#C/C(=C\c1cccc(O)c1)C(=O)NCCCCc1ccccc1`, the IC50 in test [1], in test [2] and in test [3] was greater than 100 µM throughout.

`C[C@H]([C@@H](O)c1ccc(O)cc1)N1CCC(Cc2ccccc2)CC1` [(S,R)-IFENPRODIL] had an IC50 in test [4] of 0.1 µM.
